Marks after values point to notes of the source that are not given here. Each block holds one compound with its values, some of them ahead of it.
Tested on: rats
Test: 28-day repeated dose study in rats with mass spectrometry-based plasma metabolite profiling (GC-MS, LC-MS, SPE-LC-MS); treatment ratios versus control
Conditions: plasma; for Adrenaline (Epinephrine), treatment ratio versus control / Glucosamine, treatment ratio versus control / Histamine, treatment ratio versus control / Mannosamine, treatment ratio versus control: Table 2b glomerular-tubular defect; for Choline plasmalogen No 02 (putative), treatment ratio versus control / Lysophosphatidylcholine (C17:0), treatment ratio versus control / TAG (C42:9) (DAG-Fragment) (putative), treatment ratio versus control: Table 11b alpha 2 u globulin-nephropathy
[1] = female rats, day 14, high dose, Table 2a glomerular-tubular defect
[2] = female rats, day 28, high dose, Table 2a glomerular-tubular defect
[3] = male rats, day 7, high dose, Table 2c glomerular-tubular defect
[4] = male rats, day 7, high dose, Table 2d glomerular-tubular defect
[5] = male rats, day 14, high dose, Table 2c glomerular-tubular defect
[6] = male rats, day 14, high dose, Table 2d glomerular-tubular defect
[7] = male rats, day 28, high dose, Table 2c glomerular-tubular defect
[8] = male rats, day 28, high dose, Table 2d glomerular-tubular defect
[9] = female rats, day 28, high dose, Table 5a tubular necrosis
[10] = female rats, day 28, high dose, Table 5b tubular necrosis
[11] = male rats, day 28, high dose, Table 8a direct tubular effect
[12] = male rats, day 28, high dose, Table 8b direct tubular effect
[13] = male rats, day 7, high doses except for 1,1,2,2-tetrachloroethane
[14] = male rats, day 14, high doses except for 1,1,2,2-tetrachloroethane
[15] = male rats, day 28, high doses except for 1,1,2,2-tetrachloroethane
[16] = male rats, day 7, high dose, Table 7a interstitial nephritis
[17] = male rats, day 7, high dose, Table 7b interstitial nephritis
[18] = male rats, day 14, high dose, Table 7a interstitial nephritis
[19] = male rats, day 14, high dose, Table 7b interstitial nephritis
[20] = male rats, day 28, high dose, Table 7a interstitial nephritis
[21] = male rats, day 28, high dose, Table 7b interstitial nephritis

Procedure: A group of each 5 male and female rats was dosed once daily with the indicated compounds (see Table 9, below for compounds, applied doses and administration details) over 28 days.
Each dose group in the studies consisted of five rats per sex. Additional groups of each 5 male and female animals served as controls. Before starting the treatment period, animals, which were 62-64 days old when supplied, were acclimatized to the housing and environmental conditions for 7 days. All animals of the animal population were kept under the same constant temperature (20-24±3° C.) and the same constant humidity (30-70%). The animals of the animal population were fed ad libitum. The food to be used was essentially free of chemical or microbial contaminants. Drinking water was also offered ad libitum. […] The illumination period was 12 hours light followed by 12 hours darkness (12 hours light, from 6:00 to 18:00, and 12 hours darkness, from 18:00 to 6:00). […] The test substances (compounds in Table 9 were dosed and administered as described in the table above.
In the morning of day 7, 14, and 28, blood was taken from the retroorbital venous plexus from fasted anaesthetized animals. From each animal, 1 ml of blood was collected with EDTA as anticoagulant. The samples were centrifuged for generation of plasma. All plasma samples were covered with a N2 atmosphere and then stored at −80° C. until analysis.
For mass spectrometry-based metabolite profiling analyses plasma samples were extracted and a polar and a non-polar (lipid) fraction was obtained. For GC-MS analysis, the non-polar fraction was treated with methanol under acidic conditions to yield the fatty acid methyl esters. Both fractions were further derivatised with O-methyl-hydroxyamine hydrochloride and pyridine to convert Oxo-groups to O-methyloximes and subsequently with a silylating agent before analysis. In LC-MS analysis, both fractions were reconstituted in appropriate solvent mixtures. HPLC was performed by gradient elution on reversed phase separation columns.
Steroids and their metabolites were measured by online SPE-LC-MS (Solid phase extraction-LC-MS).
Following comprehensive analytical validation steps, the data for each analyte were normalized against data from pool samples. These samples were run in parallel through the whole process to account for process variability. The significance of treatment group values specific for sex, treatment duration and metabolite was determined by comparing means of the treated groups to the means of the respective untreated control groups using WELCH-test and quantified with treatment ratios versus control and p-values.

3-Hydroxyindole, treatment ratio versus control [1]: 1.35
3-Indoxylsulfate, treatment ratio versus control [1]: 1.2
Creatine, treatment ratio versus control [1]: 1.18*
Creatinine, treatment ratio versus control [1]: 1.06
Elaidic acid (C18:trans[9]1), treatment ratio versus control [1]: 1.18
Lysophosphatidylcholine (C20:4), treatment ratio versus control [1]: 1.04
Xylitol, treatment ratio versus control [1]: 1.17
Adrenaline (Epinephrine), treatment ratio versus control (female rats, day 14, high dose): 1.27
Glucosamine, treatment ratio versus control (female rats, day 14, high dose): 0.4 *
Histamine, treatment ratio versus control (female rats, day 14, high dose): 0.93
Mannosamine, treatment ratio versus control (female rats, day 14, high dose): 0.69 *
3-Hydroxyindole, treatment ratio versus control [2]: 1.21 *
3-Indoxylsulfate, treatment ratio versus control [2]: 1.21 *
Creatine, treatment ratio versus control [2]: 1.33 *
Creatinine, treatment ratio versus control [2]: 1.93 *
Elaidic acid (C18:trans[9]1), treatment ratio versus control [2]: 1.22 *
Lysophosphatidylcholine (C20:4), treatment ratio versus control [2]: 1.24 *
Xylitol, treatment ratio versus control [2]: 1.31 *
Adrenaline (Epinephrine), treatment ratio versus control (female rats, day 28, high dose): 0.28 *
Glucosamine, treatment ratio versus control (female rats, day 28, high dose): 1.06^
Histamine, treatment ratio versus control (female rats, day 28, high dose): 0.81 *
Mannosamine, treatment ratio versus control (female rats, day 28, high dose): 1.04^
Creatine, treatment ratio versus control [3]: 1.16 *
Creatinine, treatment ratio versus control [3]: 1.32^
Glycerol-3-phosphate, polar fraction, treatment ratio versus control [3]: 1.28 *
Lysophosphatidylcholine (C18:2), treatment ratio versus control [3]: 1.07 *
Threonic acid, treatment ratio versus control [3]: 1.37 *
4-Hydroxy-3-methoxyphenylglycol (HMPG), treatment ratio versus control [4]: 1.07^
Cysteine, treatment ratio versus control [4]: 0.59 *
Isopalmitic acid (C16:0), treatment ratio versus control [4]: 0.78 *
Metanephrine, treatment ratio versus control [4]: 0.81 *
Normetanephrine, treatment ratio versus control [4]: 0.9
Creatine, treatment ratio versus control [5]: 1.06 *
Creatinine, treatment ratio versus control [5]: 1.12 *
Glycerol-3-phosphate, polar fraction, treatment ratio versus control [5]: 0.97^
Lysophosphatidylcholine (C18:2), treatment ratio versus control [5]: 1.2 *
Threonic acid, treatment ratio versus control [5]: 1.27 *
4-Hydroxy-3-methoxyphenylglycol (HMPG), treatment ratio versus control [6]: 0.91 *
Cysteine, treatment ratio versus control [6]: 0.77 *
Isopalmitic acid (C16:0), treatment ratio versus control [6]: 0.64 *
Metanephrine, treatment ratio versus control [6]: 0.7 *
Normetanephrine, treatment ratio versus control [6]: 0.89 *
Creatine, treatment ratio versus control [7]: 1.31
Creatinine, treatment ratio versus control [7]: 1.05
Glycerol-3-phosphate, polar fraction, treatment ratio versus control [7]: 1.29 *
Lysophosphatidylcholine (C18:2), treatment ratio versus control [7]: 1.09
Threonic acid, treatment ratio versus control [7]: 1.14 *
4-Hydroxy-3-methoxyphenylglycol (HMPG), treatment ratio versus control [8]: 0.86 *
Cysteine, treatment ratio versus control [8]: 0.72 *
Isopalmitic acid (C16:0), treatment ratio versus control [8]: 0.83^
Metanephrine, treatment ratio versus control [8]: 0.76 *
Normetanephrine, treatment ratio versus control [8]: 0.73 *
SMILES: C[C@H](CS)C(=O)N1CCC[C@H]1C(=O)O [Captopril]

SMILES: ClC(Cl)=C(Cl)C(Cl)=C(Cl)Cl [Hexachlorobutadiene]
Docosahexaenoic acid (C22:cis[4,7,10,13,16,19]6), treatment ratio versus control [9]: 1.19 *
Docosapentaenoic acid (C22:cis[7,10,13,16,19]5), treatment ratio versus control [9]: 1.61 *
Eicosanoic acid (C20:0), treatment ratio versus control [9]: 1.56 *
Glycerol, lipid fraction, treatment ratio versus control [9]: 1.29 *
Leucine, treatment ratio versus control [9]: 1.34 *
Phosphate (inorganic and organic phosphates), treatment ratio versus control [9]: 1.19 *
Hippuric acid, treatment ratio versus control [10]: 0.35 *
Lactate, treatment ratio versus control [10]: 0.62 *
Glycerol-3-phosphate, polar fraction, treatment ratio versus control [11]: 1.58 *
Isoleucine, treatment ratio versus control [11]: 1.11 *
Leucine, treatment ratio versus control [11]: 1.17 *
Lysophosphatidylethanolamine (C22:0), treatment ratio versus control [11]: 1.33 *
Ornithine, treatment ratio versus control [11]: 1.35 *
TAG No 02, treatment ratio versus control [11]: 1.47 *
Threonine, treatment ratio versus control [11]: 1.3 *
14-Methylhexadecanoic acid, treatment ratio versus control [12]: 0.82 *
16-Methylheptadecanoic acid, treatment ratio versus control [12]: 0.51 *
18-Hydroxy-11-deoxycorticosterone, treatment ratio versus control [12]: 0.49 *
Citrate, treatment ratio versus control [12]: 0.93 *
DAG (C18:1, C18:2), treatment ratio versus control [12]: 0.66 *
Elaidic acid (C18:trans[9]1), treatment ratio versus control [12]: 0.8 *
Isopalmitic acid (C16:0), treatment ratio versus control [12]: 0.61 *
Ketoleucine, treatment ratio versus control [12]: 0.91 *
Linolenic acid (C18:cis[9,12,15]3), treatment ratio versus control [12]: 0.6 *
Lysophosphatidylcholine (C18:0), treatment ratio versus control [12]: 0.97 *
Oleic acid (C18:cis[9]1), treatment ratio versus control [12]: 0.71 *
Palmitoleic acid (C16:cis[9]1), treatment ratio versus control [12]: 0.25 *
TAG (C16:0, C16:1), treatment ratio versus control [12]: 0.51 *
trans-4-Hydroxyproline, treatment ratio versus control [12]: 0.74 *

SMILES: ClC(Cl)C(Cl)Cl [1,1,2,2-Tetrachloroethane]
3-Hydroxyindole (ratio treated vs control) (m7: male rats, day 7): 1.39
4-Hydroxysphinganine (t18:0, Phytosphingosine), total (ratio treated vs control) (m7: male rats, day 7): 2.03
Glucuronic acid (ratio treated vs control) (m7: male rats, day 7): 3.97
Glutamate (ratio treated vs control) (m7: male rats, day 7): 2.31
Nervonic acid (C24:cis[15]1) (ratio treated vs control) (m7: male rats, day 7): 1.09
Oleic acid (C18:cis[9]1) (ratio treated vs control) (m7: male rats, day 7): 1.11
Ornithine (ratio treated vs control) (m7: male rats, day 7): 2.10
Pantothenic acid (ratio treated vs control) (m7: male rats, day 7): 4.46
Phosphatidylcholine (C18:0, C18:1) (ratio treated vs control) (m7: male rats, day 7): 1.48
Pseudouridine (ratio treated vs control) (m7: male rats, day 7): 1.17
Sphingomyelin (d18:1, C16:0) (ratio treated vs control) (m7: male rats, day 7): 1.65
Sphingomyelin (d18:2, C18:0) (ratio treated vs control) (m7: male rats, day 7): 1.22
Xylitol (ratio treated vs control) (m7: male rats, day 7): 12.21
dihomo-gamma-Linolenic acid (C20:cis[8,11,14]3) (ratio treated vs control) (m7: male rats, day 7): 2.56
3-Hydroxyindole (ratio treated vs control) (m14: male rats, day 14): 2.05
4-Hydroxysphinganine (t18:0, Phytosphingosine), total (ratio treated vs control) (m14: male rats, day 14): 2.04
Glucuronic acid (ratio treated vs control) (m14: male rats, day 14): 1.20
Glutamate (ratio treated vs control) (m14: male rats, day 14): 1.80
Nervonic acid (C24:cis[15]1) (ratio treated vs control) (m14: male rats, day 14): 0.96
Oleic acid (C18:cis[9]1) (ratio treated vs control) (m14: male rats, day 14): 1.18
Ornithine (ratio treated vs control) (m14: male rats, day 14): 2.38
Pantothenic acid (ratio treated vs control) (m14: male rats, day 14): 4.32
Phosphatidylcholine (C18:0, C18:1) (ratio treated vs control) (m14: male rats, day 14): 1.21
Pseudouridine (ratio treated vs control) (m14: male rats, day 14): 1.51
Sphingomyelin (d18:1, C16:0) (ratio treated vs control) (m14: male rats, day 14): 1.34
Sphingomyelin (d18:2, C18:0) (ratio treated vs control) (m14: male rats, day 14): 0.93
Xylitol (ratio treated vs control) (m14: male rats, day 14): 10.32
dihomo-gamma-Linolenic acid (C20:cis[8,11,14]3) (ratio treated vs control) (m14: male rats, day 14): 3.40
3-Hydroxyindole (ratio treated vs control) (m28: male rats, day 28): 2.05
4-Hydroxysphinganine (t18:0, Phytosphingosine), total (ratio treated vs control) (m28: male rats, day 28): 2.04
Glucuronic acid (ratio treated vs control) (m28: male rats, day 28): 1.20
Glutamate (ratio treated vs control) (m28: male rats, day 28): 1.80
Nervonic acid (C24:cis[15]1) (ratio treated vs control) (m28: male rats, day 28): 0.96
Oleic acid (C18:cis[9]1) (ratio treated vs control) (m28: male rats, day 28): 1.18
Ornithine (ratio treated vs control) (m28: male rats, day 28): 2.38
Pantothenic acid (ratio treated vs control) (m28: male rats, day 28): 4.32
Phosphatidylcholine (C18:0, C18:1) (ratio treated vs control) (m28: male rats, day 28): 1.21
Pseudouridine (ratio treated vs control) (m28: male rats, day 28): 1.51
Sphingomyelin (d18:1, C16:0) (ratio treated vs control) (m28: male rats, day 28): 1.34
Sphingomyelin (d18:2, C18:0) (ratio treated vs control) (m28: male rats, day 28): 0.93
Xylitol (ratio treated vs control) (m28: male rats, day 28): 10.32
dihomo-gamma-Linolenic acid (C20:cis[8,11,14]3) (ratio treated vs control) (m28: male rats, day 28): 3.40
Choline plasmalogen No 02 (putative), treatment ratio versus control [13]: 1.04
Lysophosphatidylcholine (C17:0), treatment ratio versus control [13]: 0.63
TAG (C42:9) (DAG-Fragment) (putative), treatment ratio versus control [13]: 0.76
Choline plasmalogen No 02 (putative), treatment ratio versus control [14]: 1.13
Lysophosphatidylcholine (C17:0), treatment ratio versus control [14]: 0.89
TAG (C42:9) (DAG-Fragment) (putative), treatment ratio versus control [14]: 0.72
Choline plasmalogen No 02 (putative), treatment ratio versus control [15]: 1.13
Lysophosphatidylcholine (C17:0), treatment ratio versus control [15]: 0.89
TAG (C42:9) (DAG-Fragment) (putative), treatment ratio versus control [15]: 0.72

Creatine, treatment ratio versus control [16]: 1.4 *
Creatinine, treatment ratio versus control [16]: 1.41 *
Eicosanoic acid (C20:0), treatment ratio versus control [16]: 1.41 *
Glucuronic acid, treatment ratio versus control [16]: 1.08^
Lignoceric acid (C24:0), treatment ratio versus control [16]: 1.31 *
Phosphatidylcholine (C18:2, C20:4), treatment ratio versus control [16]: 1.05 *
Serine, treatment ratio versus control [16]: 1.12 *
Sphingomyelin (d18:1, C16:0), treatment ratio versus control [16]: 1.69 *
Threonine, treatment ratio versus control [16]: 1.31 *
myo-Inositol-2-phosphate, treatment ratio versus control [16]: 1.39 *
Glycerol, polar fraction, treatment ratio versus control [17]: 0.98^
Isopalmitic acid (C16:0), treatment ratio versus control [17]: 0.55 *
Kynurenic acid, treatment ratio versus control [17]: 0.71 *
Creatine, treatment ratio versus control [18]: 1.35 *
Creatinine, treatment ratio versus control [18]: 1.58 *
Eicosanoic acid (C20:0), treatment ratio versus control [18]: 1.3 *
Glucuronic acid, treatment ratio versus control [18]: 1.17 *
Lignoceric acid (C24:0), treatment ratio versus control [18]: 1.55 *
Phosphatidylcholine (C18:2, C20:4), treatment ratio versus control [18]: 1.06 *
Serine, treatment ratio versus control [18]: 1.5 *
Sphingomyelin (d18:1, C16:0), treatment ratio versus control [18]: 1.5 *
Threonine, treatment ratio versus control [18]: 1.72 *
myo-Inositol-2-phosphate, treatment ratio versus control [18]: 0.88^
Glycerol, polar fraction, treatment ratio versus control [19]: 0.87^
Isopalmitic acid (C16:0), treatment ratio versus control [19]: 0.57 *
Kynurenic acid, treatment ratio versus control [19]: 0.83 *
Creatine, treatment ratio versus control [20]: 1.34 *
Creatinine, treatment ratio versus control [20]: 1.33 *
Eicosanoic acid (C20:0), treatment ratio versus control [20]: 1.76 *
Glucuronic acid, treatment ratio versus control [20]: 1.26 *
Lignoceric acid (C24:0), treatment ratio versus control [20]: 1.23 *
Phosphatidylcholine (C18:2, C20:4), treatment ratio versus control [20]: 1.05^
Serine, treatment ratio versus control [20]: 1.54 *
Sphingomyelin (d18:1, C16:0), treatment ratio versus control [20]: 1.48 *
Threonine, treatment ratio versus control [20]: 2.44 *
myo-Inositol-2-phosphate, treatment ratio versus control [20]: 1.3 *
Glycerol, polar fraction, treatment ratio versus control [21]: 0.75 *
Isopalmitic acid (C16:0), treatment ratio versus control [21]: 0.59 *
Kynurenic acid, treatment ratio versus control [21]: 0.8 *
SMILES: CCc1ccccc1 [Ethyl benzene, Ethylbenzene]
